Measured values as given in the supplement of paper PMC4862054.

Tested on: BT-549
Experiment: normalised viability (% of control), CellTiter-Blue; higher = more viable cells (100 = DMSO, 0 = benzethonium chloride kill control)
Conditions: incubation time: 72 h
Experimental: (§1)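 DSRT, CellTiter-Blue viability, 72 h incubation. Signal is normalised to DMSO and benzethonium chloride controls. Value is the normalised response at dose 1.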

Row | SMILES | normalised viability [%]
1 | CN(N=O)C(=O)N[C@@H](C=O)[C@@H](O)[C@H](O)[C@H](O)CO [Streptozocin] (1 nM) | 102
2 | C=C(c1ccc(C(=O)O)cc1)c1cc2c(cc1C)C(C)(C)CCC2(C)C [Bexarotene] (1 nM) | 88.7
3 | C[C@]12CC[C@@H]3c4ccc(O)cc4C[C@@H](CCCCCCCCC[S+]([O-])CCCC(F)(F)C(F)(F)F)[C@H]3[C@@H]1CC[C@@H]2O (stereo not given in full) [Fulvestrant] (1 nM) | 89.9
4 | CCC1(c2ccc(N)cc2)CCC(=O)NC1=O (stereo not given) [Aminoglutethimide] (1 nM) | 93.2
5 | COc1cc2nccc(Oc3ccc(NC(=O)C4(C(=O)Nc5ccc(F)cc5)CC4)cc3)c2cc1OC [Cabozantinib] (0.1 nM) | 115
6 | C[C@@H](Oc1cc(-c2cnn(C3CCNCC3)c2)cnc1N)c1c(Cl)ccc(F)c1Cl [Crizotinib] (1 nM) | 75.4

Tested on: CAL-51
Experiment: as above
Conditions: incubation time: 72 h
Experimental: as §1

Row | SMILES | normalised viability [%]
7 | CN(N=O)C(=O)N[C@@H](C=O)[C@@H](O)[C@H](O)[C@H](O)CO [Streptozocin] (1 nM) | 110
8 | C=C(c1ccc(C(=O)O)cc1)c1cc2c(cc1C)C(C)(C)CCC2(C)C [Bexarotene] (1 nM) | 94.1
9 | C[C@]12CC[C@@H]3c4ccc(O)cc4C[C@@H](CCCCCCCCC[S+]([O-])CCCC(F)(F)C(F)(F)F)[C@H]3[C@@H]1CC[C@@H]2O (stereo not given in full) [Fulvestrant] (1 nM) | 111
10 | CCC1(c2ccc(N)cc2)CCC(=O)NC1=O (stereo not given) [Aminoglutethimide] (1 nM) | 86.1
11 | COc1cc2nccc(Oc3ccc(NC(=O)C4(C(=O)Nc5ccc(F)cc5)CC4)cc3)c2cc1OC [Cabozantinib] (0.1 nM) | 103
12 | C[C@@H](Oc1cc(-c2cnn(C3CCNCC3)c2)cnc1N)c1c(Cl)ccc(F)c1Cl [Crizotinib] (1 nM) | 108

Tested on: CAL-85-1
Experiment: as above
Conditions: incubation time: 72 h
Experimental: as §1

Row | SMILES | normalised viability [%]
13 | CN(N=O)C(=O)N[C@@H](C=O)[C@@H](O)[C@H](O)[C@H](O)CO [Streptozocin] (1 nM) | 91.4
14 | C=C(c1ccc(C(=O)O)cc1)c1cc2c(cc1C)C(C)(C)CCC2(C)C [Bexarotene] (1 nM) | 102
15 | C[C@]12CC[C@@H]3c4ccc(O)cc4C[C@@H](CCCCCCCCC[S+]([O-])CCCC(F)(F)C(F)(F)F)[C@H]3[C@@H]1CC[C@@H]2O (stereo not given in full) [Fulvestrant] (1 nM) | 78.7
16 | CCC1(c2ccc(N)cc2)CCC(=O)NC1=O (stereo not given) [Aminoglutethimide] (1 nM) | 115
17 | COc1cc2nccc(Oc3ccc(NC(=O)C4(C(=O)Nc5ccc(F)cc5)CC4)cc3)c2cc1OC [Cabozantinib] (0.1 nM) | 90.2
18 | C[C@@H](Oc1cc(-c2cnn(C3CCNCC3)c2)cnc1N)c1c(Cl)ccc(F)c1Cl [Crizotinib] (1 nM) | 83.9

Tested on: Hs578T
Experiment: as above
Conditions: incubation time: 72 h
Experimental: as §1

Row | SMILES | normalised viability [%]
19 | CN(N=O)C(=O)N[C@@H](C=O)[C@@H](O)[C@H](O)[C@H](O)CO [Streptozocin] (1 nM) | 103
20 | C=C(c1ccc(C(=O)O)cc1)c1cc2c(cc1C)C(C)(C)CCC2(C)C [Bexarotene] (1 nM) | 111
21 | C[C@]12CC[C@@H]3c4ccc(O)cc4C[C@@H](CCCCCCCCC[S+]([O-])CCCC(F)(F)C(F)(F)F)[C@H]3[C@@H]1CC[C@@H]2O (stereo not given in full) [Fulvestrant] (1 nM) | 90.2
22 | CCC1(c2ccc(N)cc2)CCC(=O)NC1=O (stereo not given) [Aminoglutethimide] (1 nM) | 107
23 | COc1cc2nccc(Oc3ccc(NC(=O)C4(C(=O)Nc5ccc(F)cc5)CC4)cc3)c2cc1OC [Cabozantinib] (0.1 nM) | 97.4
24 | C[C@@H](Oc1cc(-c2cnn(C3CCNCC3)c2)cnc1N)c1c(Cl)ccc(F)c1Cl [Crizotinib] (1 nM) | 90.5

Tested on: MDA-MB-453
Experiment: as above
Conditions: incubation time: 72 h
Experimental: as §1

Row | SMILES | normalised viability [%]
25 | CN(N=O)C(=O)N[C@@H](C=O)[C@@H](O)[C@H](O)[C@H](O)CO [Streptozocin] (1 nM) | 111
26 | C=C(c1ccc(C(=O)O)cc1)c1cc2c(cc1C)C(C)(C)CCC2(C)C [Bexarotene] (1 nM) | 83.5
27 | C[C@]12CC[C@@H]3c4ccc(O)cc4C[C@@H](CCCCCCCCC[S+]([O-])CCCC(F)(F)C(F)(F)F)[C@H]3[C@@H]1CC[C@@H]2O (stereo not given in full) [Fulvestrant] (1 nM) | 100
28 | CCC1(c2ccc(N)cc2)CCC(=O)NC1=O (stereo not given) [Aminoglutethimide] (1 nM) | 89.7
29 | COc1cc2nccc(Oc3ccc(NC(=O)C4(C(=O)Nc5ccc(F)cc5)CC4)cc3)c2cc1OC [Cabozantinib] (0.1 nM) | 99.4
30 | C[C@@H](Oc1cc(-c2cnn(C3CCNCC3)c2)cnc1N)c1c(Cl)ccc(F)c1Cl [Crizotinib] (1 nM) | 95.3

Tested on: HDQ-P1
Experiment: as above
Conditions: incubation time: 72 h
Experimental: as §1

Row | SMILES | normalised viability [%]
31 | CN(N=O)C(=O)N[C@@H](C=O)[C@@H](O)[C@H](O)[C@H](O)CO [Streptozocin] (1 nM) | 116
32 | C=C(c1ccc(C(=O)O)cc1)c1cc2c(cc1C)C(C)(C)CCC2(C)C [Bexarotene] (1 nM) | 84.7
33 | C[C@]12CC[C@@H]3c4ccc(O)cc4C[C@@H](CCCCCCCCC[S+]([O-])CCCC(F)(F)C(F)(F)F)[C@H]3[C@@H]1CC[C@@H]2O (stereo not given in full) [Fulvestrant] (1 nM) | 93.6
34 | CCC1(c2ccc(N)cc2)CCC(=O)NC1=O (stereo not given) [Aminoglutethimide] (1 nM) | 92.7
35 | COc1cc2nccc(Oc3ccc(NC(=O)C4(C(=O)Nc5ccc(F)cc5)CC4)cc3)c2cc1OC [Cabozantinib] (0.1 nM) | 96.1
36 | C[C@@H](Oc1cc(-c2cnn(C3CCNCC3)c2)cnc1N)c1c(Cl)ccc(F)c1Cl [Crizotinib] (1 nM) | 61.5

Tested on: BT-474
Experiment: as above
Conditions: incubation time: 72 h
Experimental: as §1

Row | SMILES | normalised viability [%]
37 | CN(N=O)C(=O)N[C@@H](C=O)[C@@H](O)[C@H](O)[C@H](O)CO [Streptozocin] (1 nM) | 81
38 | C=C(c1ccc(C(=O)O)cc1)c1cc2c(cc1C)C(C)(C)CCC2(C)C [Bexarotene] (1 nM) | 81.1
39 | C[C@]12CC[C@@H]3c4ccc(O)cc4C[C@@H](CCCCCCCCC[S+]([O-])CCCC(F)(F)C(F)(F)F)[C@H]3[C@@H]1CC[C@@H]2O (stereo not given in full) [Fulvestrant] (1 nM) | 70.6
40 | CCC1(c2ccc(N)cc2)CCC(=O)NC1=O (stereo not given) [Aminoglutethimide] (1 nM) | 91.1
41 | COc1cc2nccc(Oc3ccc(NC(=O)C4(C(=O)Nc5ccc(F)cc5)CC4)cc3)c2cc1OC [Cabozantinib] (0.1 nM) | 100
42 | C[C@@H](Oc1cc(-c2cnn(C3CCNCC3)c2)cnc1N)c1c(Cl)ccc(F)c1Cl [Crizotinib] (1 nM) | 113

Tested on: HCC1143
Experiment: as above
Conditions: incubation time: 72 h
Experimental: as §1

Row | SMILES | normalised viability [%]
43 | CN(N=O)C(=O)N[C@@H](C=O)[C@@H](O)[C@H](O)[C@H](O)CO [Streptozocin] (1 nM) | 99
44 | C=C(c1ccc(C(=O)O)cc1)c1cc2c(cc1C)C(C)(C)CCC2(C)C [Bexarotene] (1 nM) | 110
45 | C[C@]12CC[C@@H]3c4ccc(O)cc4C[C@@H](CCCCCCCCC[S+]([O-])CCCC(F)(F)C(F)(F)F)[C@H]3[C@@H]1CC[C@@H]2O (stereo not given in full) [Fulvestrant] (1 nM) | 79.1
46 | CCC1(c2ccc(N)cc2)CCC(=O)NC1=O (stereo not given) [Aminoglutethimide] (1 nM) | 109
47 | COc1cc2nccc(Oc3ccc(NC(=O)C4(C(=O)Nc5ccc(F)cc5)CC4)cc3)c2cc1OC [Cabozantinib] (0.1 nM) | 95.4
48 | C[C@@H](Oc1cc(-c2cnn(C3CCNCC3)c2)cnc1N)c1c(Cl)ccc(F)c1Cl [Crizotinib] (1 nM) | 86.5

Tested on: MDA-MB-436
Experiment: as above
Conditions: incubation time: 72 h
Experimental: as §1

Row | SMILES | normalised viability [%]
49 | CN(N=O)C(=O)N[C@@H](C=O)[C@@H](O)[C@H](O)[C@H](O)CO [Streptozocin] (1 nM) | 100
50 | C=C(c1ccc(C(=O)O)cc1)c1cc2c(cc1C)C(C)(C)CCC2(C)C [Bexarotene] (1 nM) | 82.5
51 | C[C@]12CC[C@@H]3c4ccc(O)cc4C[C@@H](CCCCCCCCC[S+]([O-])CCCC(F)(F)C(F)(F)F)[C@H]3[C@@H]1CC[C@@H]2O (stereo not given in full) [Fulvestrant] (1 nM) | 106
52 | CCC1(c2ccc(N)cc2)CCC(=O)NC1=O (stereo not given) [Aminoglutethimide] (1 nM) | 98.2
53 | COc1cc2nccc(Oc3ccc(NC(=O)C4(C(=O)Nc5ccc(F)cc5)CC4)cc3)c2cc1OC [Cabozantinib] (0.1 nM) | 103
54 | C[C@@H](Oc1cc(-c2cnn(C3CCNCC3)c2)cnc1N)c1c(Cl)ccc(F)c1Cl [Crizotinib] (1 nM) | 74.1

Tested on: MDA-MB-468
Experiment: as above
Conditions: incubation time: 72 h
Experimental: as §1

Row | SMILES | normalised viability [%]
55 | CN(N=O)C(=O)N[C@@H](C=O)[C@@H](O)[C@H](O)[C@H](O)CO [Streptozocin] (1 nM) | 102
